SMILES strings stand for the structures.

This data set can be described thus: solvent given as SMILES.

`Cc1ccc(N(c2ccc(C)cc2)c2ccc(-c3ccc4c(c3)C(=O)c3ccccc3C4=O)cc2)cc1`: the absorption maximum is given as 463 nm (in C1CCOC1); 457 nm (in CCCCCC); 461 nm (in CCOC(C)=O); 459 nm (in CCOCC); 470 nm (in Cc1ccccc1); 474 nm (in ClC(Cl)(Cl)Cl). The absorption maximum (in ClCCl) amounted to 476 nm.
For `CCCCCCc1ccc2c(/C=N/c3cc(/N=C/c4c(O)ccc5cc(CCCCCC)ccc45)cc(/N=C/c4c(O)ccc5cc(CCCCCC)ccc45)c3)c(O)ccc2c1`, the absorption maximum runs as follows: (in C1CCOC1) 477 nm; (in CC#N) 474 nm; (in Cc1ccccc1) 480 nm; (in ClCCl) 479 nm.
The compound `Clc1ccc(/C=C(\c2ccccc2)c2nc3ccccc3o2)cc1` came in with an absorption maximum (in C1CCCCC1) of 330 nm and an absorption maximum (in CO) of 330 nm.
As for `N#Cc1ccc(C2=Cc3ccccc3P2(=O)c2ccccc2)cc1` (centres undefined), the absorption maximum (in ClCCl) was 350 nm.
In turn, `Cc1c(C)c2c3ccccc3[nH]c2c2ccccc12` displayed an absorption maximum (in ClCCl) of 302 nm.
Regarding `CN(C)c1ccc2cc(C3=[O+][B-](F)(F)OC(c4ccc(C#N)cc4)=C3)ccc2c1`, the absorption maximum reads like this: (in C1CCOC1) 525 nm; (in CC#N) 539 nm; (in CC(C)=O) 533 nm; (in CS(C)=O) 559 nm; (in Cc1ccccc1) 519 nm; (in ClC(Cl)Cl) 532 nm. Further, the absorption maximum (in ClCCl) came to 539 nm.
For the compound `N#Cc1c(N2CCCCC2)cc(-c2cccc3ccccc23)c2c1CCc1ccccc1-2`, the absorption maximum (in C1CCOC1) was 353 nm.
On to `CC1(C)C(/C=C/C=C/C=C/C=C2/N(c3ccc(S(=O)(=O)[O-])cc3)c3ccc(S(=O)(=O)[O-])cc3C2(C)C)=[N+](c2ccc(S(=O)(=O)[O-])cc2)c2ccc(S(=O)(=O)[O-])cc21`, for which the absorption maximum (in CO) was determined as 759 nm and the absorption maximum (in O) was found to be 754 nm.
For the compound `COc1c2ccccc2c(OC)c2c(C#Cc3ccccc3)c3cc4sccc4cc3c(C#Cc3ccccc3)c12`, where the note is “in ClCCl”, the absorption maximum stood at 656 nm.
On to `O=C1NC(c2ccccc2)=C/C1=C\c1ccccc1`, for which the absorption maximum (in C1COCCO1) turned out to be 422 nm.
Regarding `CCOc1ccc2cc(-c3ccc(C)cc3)c(=O)oc2c1`, the absorption maximum (in C1CCOC1) came out at 342 nm, the absorption maximum (in CCCCCC) is 338 nm, the absorption maximum (in CCO) is 344 nm and the absorption maximum (in CS(C)=O) worked out at 345 nm.
For `CC(C)(C)NC1=CC2=c3cc(NC(C)(C)C)c4nc(C(F)(F)C(F)(F)C(F)(F)F)nc5c(NC(C)(C)C)cc(c3c54)C3=CC(NC(C)(C)C)=C4N=C(C(F)(F)C(F)(F)C(F)(F)F)N=C1C4C32` (centres undefined), the absorption maximum (in C1CCOC1) is 646 nm.
As for `COC(=O)c1cccc2c1C#Cc1c(NC(C)=O)cccc1OCCCO2`, the absorption maximum reads like this: (in CC#N) 335 nm; (in ClCCl) 341 nm.
`CCCCCCCCN1C(=O)c2ccc3c4c(-c5ccc6c(c5)c5ccccc5n6-c5ccccc5)cc5c6c(cc(-c7ccc8c(c7)c7ccccc7n8-c7ccccc7)c(c7ccc(c2c37)C1=O)c64)C(=O)N(CCCCCCCC)C5=O` gave an absorption maximum (in ClC(Cl)Cl) of 563 nm.
Compound `CC[n+]1nc2cc3c(cc2c2cc(C)ccc21)N(C)CCC3` came in with an absorption maximum (in O) of 487 nm.
In the case of `CC1=[N+]2C(=C(c3ccc(N(c4ccccc4)c4ccccc4)cc3)c3ccc(C)n3[B-]2(F)F)C=C1c1cc2n(c1)[B-](F)(F)[N+]1=CC=CC1=C2c1c(C)cc(C)cc1C`, the absorption maximum is, setting by setting: (in C1CCCCC1) 593 nm; (in CCOC(C)=O) 596 nm.
For the setting “in CC#N”, `O=c1cc[nH]c(=O)[nH]1` displayed an absorption maximum of 256 nm.
Turning to `CC(C)(C)c1ccc2c(c1)c1cc(C(C)(C)C)ccc1n2-c1ccc(C#Cc2ccc(C=C(C#N)C#N)cc2)cc1`, the absorption maximum is, setting by setting: (in CC#N) 346 nm; (in CCCCC) 345 nm; (in Cc1ccccc1) 348 nm; (in ClCCl) 410 nm.
`Cc1ccc(C2=C(c3ccc(C)cc3)c3cccc4c3c(cc3nc5ccccc5nc34)O2)cc1`: the absorption maximum (in ClCCl) stood at 498 nm.
`Oc1cccc2ccccc12`: where the note is “in C1CCCCC1”, the absorption maximum was 303.49 nm.
On to `CN(C)c1ccc(/C=C/C=C/C2=NC3C(=O)NC(N)=NC3N2[C@H]2C[C@H](O)[C@@H](CO)O2)cc1` (some centres undefined), for which the absorption maximum runs as follows: (in C1COCCO1) 352 nm; (in CC#N) 349 nm; (in CO) 343 nm.
Regarding `c1ccc(N(c2ccccc2)c2ccc(-n3ccc4cc(-c5ccc(C6(c7ccccc7)c7ccccc7-c7ccccc76)cc5)ccc43)cc2)cc1`, the absorption maximum (in ClCCl) was found to be 308 nm.
On to `COC(=O)c1ccc2c3ccc(C(=O)OC)c4c(C(=O)OC)ccc(c5ccc(C(=O)OC)c1c25)c43`, for which the absorption maximum is, setting by setting: (in C1COCCO1) 470 nm; (in CC#N) 465 nm; (in CC(C)=O) 465 nm; (in CC(C)O) 476 nm; (in CCCCO) 476 nm; (in CN(C)C=O) 468 nm. In addition, the absorption maximum is 465 nm (in CO) and 469 nm (in ClC(Cl)Cl).
With `COc1ccc(-c2nc(-c3cccc(C#N)c3)[nH]c2-c2ccc(OC)cc2)cc1`, where the note is “in CO”, the absorption maximum is recorded as 327 nm.
In the case of `Cc1ccc(-n2cccc2)cc1`, the absorption maximum reads like this: (in CC#N) 254 nm; (in CCCCCC) 254 nm.
`C(#Cc1ncc(-c2ccccc2)o1)c1cccnc1` gave an absorption maximum (in ClCCl) of 330 nm.
For `N#Cc1cnc(-c2c3ccccc3cc3ccccc23)nc1`, the absorption maximum reads like this: (in CCO) 382 nm; (in ClCCl) 385 nm.
On to `Cc1ccc(-c2oc3cccc4c5c(-c6ccc(C)cc6)c(=N)oc6cccc(c2c34)c65)cc1`, for which the absorption maximum (in ClC(Cl)Cl) is 400 nm.
Take `CCN(CC)c1ccc2c(-c3ccccc3C(=O)O)c3c([o+]c2c1)/C(=C/c1ccc(N(C)C)s1)CCC3`: the absorption maximum (in ClCCl) amounted to 733 nm.
In turn, `CCCCCCCCCCCCCCCC[n+]1ccc(/C=C(\C)c2ccccc2)cc1` gave an absorption maximum (in C1COCCO1) of 387.4 nm; an absorption maximum (in CC(C)=O) of 383.2 nm; an absorption maximum (in CC(C)O) of 385.4 nm; an absorption maximum (in CCCCCC) of 398.5 nm; an absorption maximum (in CCCCO) of 390.5 nm; an absorption maximum (in CCCO) of 398.5 nm. Also, the absorption maximum runs as follows: (in CCO) 399.5 nm; (in CN(C)C=O) 384.4 nm; (in CO) 400.6 nm; (in CS(C)=O) 384.6 nm; (in Cc1ccccc1) 393.5 nm; (in ClC(Cl)(Cl)Cl) 399.5 nm. The absorption maximum is 384 nm (in ClC(Cl)Cl), 386.4 nm (in ClCCl) and 386.8 nm (in c1ccccc1).
In turn, `CC1=[N+]2C(=C(c3cccs3)c3ccc(C)n3[B-]2(F)F)C=C1c1cc2n(c1)[B-](F)(F)[N+]1=CC=CC1=C2c1c(C)cc(C)cc1C` displayed an absorption maximum (in C1CCCCC1) of 608.5 nm and an absorption maximum (in CCOC(C)=O) of 605 nm.
For the setting “in Cc1ccccc1”, `CCCCc1ccc(-n2c3c4ccc(C(F)(F)F)cc4nnc3c3c2c2nnc4cc(C(F)(F)F)ccc4c2n3-c2ccc(CCCC)cc2)cc1` returned an absorption maximum of 322 nm.
For the setting “in c1ccccc1”, `CCOC(=O)c1sc2nc3c(c(C#N)c2c1N)CCCCCC3` had an absorption maximum of 410 nm.
With `O=C1c2ccccc2-c2ccc(N3CCN(c4ccccc4)CC3)c3cccc1c23`, the absorption maximum by setting is: (in C1CCCCC1) 423 nm; (in C1CCOC1) 438 nm; (in C1COCCO1) 436.2 nm; (in CC1COC(=O)O1) 445.6 nm; (in CC#N) 444 nm; (in CC(C)=O) 441.2 nm. For the same compound, the absorption maximum is, setting by setting: (in CCCCCCCCO) 445 nm; (in CCCCCO) 446 nm; (in CCCCO) 444 nm; (in CCCO) 445 nm; (in CCO) 446.8 nm; (in CCOC(C)=O) 436 nm. The absorption maximum came out at 447.2 nm (in CN(C)C=O); 445 nm (in CO); 452 nm (in CS(C)=O); 435.8 nm (in Cc1ccccc1); 443 nm (in ClC(Cl)Cl).
With `Cc1cc(C)c(C2=C3C=C(/C=C/C(=O)OC(C)(C)C)C=[N+]3[B-](F)(F)n3c2ccc3N2CCCC2)c(C)c1`, the absorption maximum (in ClCCl) worked out at 479 nm.
For `CCCCCCN1C(=O)c2cccc3c(-c4ccc(-c5ccc(-c6ccc7c8c(cccc68)C(=O)N(CCCCCC)C7=O)s5)s4)ccc(c23)C1=O`, where the note is “in ClC(Cl)Cl”, the absorption maximum stood at 428 nm.
The compound `CC(C)[Si](C#Cc1c2cc3ccccc3cc2c(C#C[Si](C(C)C)(C(C)C)C(C)C)c2nc3cc4c(cc3nc12)C1c2ccccc2C4c2ccccc21)(C(C)C)C(C)C` gave an absorption maximum (in CCCCCC) of 675 nm and an absorption maximum (in ClCCl) of 683 nm.
Under “in CCO”, `CN1/C(=C/C2=C([O-])C(=O)C2=C2C(=O)NC(=O)NC2=O)C(C)(C)c2ccccc21` displayed an absorption maximum of 457 nm.
Under “in C1COCCO1”, `COc1ccc(C2=N/C(=C\c3ccccc3)C(=O)O2)cc1OC` registered an absorption maximum of 378 nm.
As for `F[B-]1(F)n2c(c3ccccc3c2-c2ccccc2)C=C2c3ccccc3C(c3ccccc3)=[N+]21`, the absorption maximum runs as follows: (in C1CCOC1) 640 nm; (in ClCCl) 634 nm.
In the case of `CC[n+]1nc2cc3c4c(c2c2cc(C)ccc21)CCCN4CCC3`, for the setting “in O”, the absorption maximum came out at 500 nm.
For `C/N=N/C`, for the setting “in CCO”, the absorption maximum came to 340 nm.
Consider `Cc1ccc(N(c2ccc(C)cc2)c2ccc(-c3ccc(-c4ccc(N(c5ccc(C)cc5)c5ccc(C)cc5)cc4)c4nsnc34)cc2)cc1`, for which the absorption maximum amounted to 474 nm (in Cc1ccccc1) and 485 nm (in ClCCl).
`Cc1cc2c(o1)=CC1=C(C(F)(F)F)c3cc4oc(C)cc4n3[B-](F)(F)[N+]=21`: for the setting “in ClC(Cl)Cl”, the absorption maximum was 613 nm.
For the compound `O=c1ccc2cc3ccoc3cc2o1`, the absorption maximum runs as follows: (in CC(C)O) 298 nm; (in CCO) 299 nm; (in CCOCC) 294 nm; (in CO) 300 nm; (in O) 303 nm.

These data come from the Deep4Chem optical property database.
